This is an account of results in US11299467B2 (Antabio SAS, priority 2017, dated 2022).

A short description of data set [1]: PK study, i.v. dosing in mice. Format: in vivo, male Swiss albino mice. Particulars: i.v. 1 mg/kg; for AUC / C0 / clearance: mouse, plasma, iv, male Swiss albino mice; for AUC: read-out: AUC (area under the curve); for C0: read-out: C0 (plasma concentration); for clearance: read-out: Cl (clearance). How it is done: Compound A and Example 7 were dosed i.v. at 1 mg/kg to male Swiss albino mice.

Data set [2] in a line: Plasma protein binding, rapid equilibrium dialysis, human plasma. Particulars: 100% plasma, 5 h equilibrium dialysis. Type of data set: in vitro ADME. Here is the method: [table] Test compound was spiked in plasma to a final concentration of 10 μM. An aliquot of 300 μL of plasma was placed in red chamber of the insert and 500 μL of PBS was placed into white chamber of the insert. The plate was incubated at 37° C. in thermomixer at 400 rpm for 5 hours. After incubation, the samples were matrix equilibrated with opposite matrix (10 μL of plasma/100 μL of buffer sample was matched with 100 μL of blank buffer/10 μL of plasma). Matrix matched samples were precipitated with 200 μL of acetonitrile containing internal standard. Samples were vortexed at 1000 rpm for 5 min and centrifuged at 4000 rpm for 10 min. Supernatant was separated, diluted 2 fold with water and analyzed on LC-MS/MS. Blank control samples were processed immediately after the preparation of plasma working stock solutions. These samples served as a measure for calculating the % recovery of test compounds. The percent plasma bound fraction was calculated by the following equations: % Unbound=100*FC/TC % Recovery=100*(FC+TC)/T0 where • TC=Total compound concentration as determined by the calculated concentration on the plasma side of the membrane • FC=Free compound concentration as determined by the calculated concentration on the buffer side of the membrane • T0=Total compound concentration as determined before dialysis For each set of duplicates/compound, the percentage bound, percentage unbound and percentage recovery was determined.
(In equilibrium dialysis only unbound substance equilibrates across the membrane.)

Data set [3] in a line: Plasma stability of test compounds in human plasma. Type of data set: in vitro ADME. Particulars: 1 μM, 37° C. How it is done: [table] Test compound and QC compound were incubated at a final concentration of 1 μM in plasma at 37° C. in shaker water bath with gentle shaking. At predetermined time points, reaction was terminated with 200 μL of acetonitrile containing internal standard and centrifuged at 4000×RCF, 4° C. for 20 minutes. Supernatant was separated and analyzed by LC-MS/MS. The following equation was used to determine the percentage remaining of test/QC compound following the procedure above: […]

Data set [4] addresses NDM-1 (Klebsiella pneumoniae, UniProt C7C422). In words: In vitro enzyme inhibition assay, purified NDM-1 (imipenem hydrolysis, UV 299 nm). Type of data set: biochemical. How it is done:
(§1) Enzyme inhibition assays were performed using purified MBL enzymes (NDM-1; VIM-1; VIM-2; IMP-1) in 10 mM HEPES buffer pH 7.5 in 96-well microtiter plates. Imipenem (300 μM) was used as substrate and its hydrolysis was followed at UV 299 nm during 10 mn every 30 seconds using a Perkin Elmer Envision UV fluorescence plate reader.
(§2) Mean Ki values from multiple experiments are presented below.
(§3) Studies were undertaken to compare the compounds of the invention with structurally similar compounds (“Comp. x”). Experiments were conducted as described above.

Data set [5] addresses VIM-1 (Pseudomonas aeruginosa, UniProt A0A0F7KYQ8). In words: In vitro enzyme inhibition assay, purified VIM-1 (imipenem hydrolysis, UV 299 nm). Type of data set: biochemical. Here is the method:
as §1, §2, §3

The target in data set [6] is VIM-2 (Escherichia coli, UniProt Q5U7L7). In words: In vitro enzyme inhibition assay, purified VIM-2 (imipenem hydrolysis, UV 299 nm). Format: biochemical. Here is the method: as §1, §2, §3
The target in data set [7] is IMP-1 (Serratia marcescens, UniProt P52699). In words: In vitro enzyme inhibition assay, purified IMP-1 (imipenem hydrolysis, UV 299 nm). Format: biochemical. Here is the method:
as §1, §2, §3

Data set [8] has as its system K. pneumoniae NTBC104. In words: In vivo efficacy, mouse thigh infection with K. pneumoniae NTBC104. Particulars: meropenem 30 mg/kg plus compound 30 mg/kg, 9 hours post infection. How it is done: (§4) Mice were infected in the thigh with K. pneumoniae NTBC104. […] The MIC of meropenem in the presence of 8 ug/mL of the compound of Example 2 is 4 ug/mL.
At the end of the experiment (9 hours post infection) the animals were sacrificed and the numbers of colony forming units (CFUs) were measured in order to quantify bacterial load (extent of the infection).

Data set [9] has as its system NTBC104-1 (K. pneumoniae strain expressing NDM-1 and SHV-11). Nature of the data set: Meropenem MIC, broth micro-dilution, NTBC104-1. Type of data set: cell-based. The conditions noted are these: 8 ug/mL of the compound. Here is the method:
The experiments were carried out using the ‘broth micro-dilution method’ according to the protocols M07-A8 established by the Clinical Laboratory Standards Institute (CLSI). Serial dilutions of the β-lactam antibiotic (Meropenem) were prepared in 96-well plates in cation-adjusted Mueller-Hinton broth (CAMHB); the concentration range was defined from 0.03 mg/L to 512 mg/L. The compounds were added at a constant concentration of 8 μg/mL. A bacterial inoculum of each strain (clinical isolates) was adjusted to a 0.5 McFarland turbidity standard in physiologic serum (0.9% NaCl), then diluted 1:100 in CAMHB and added to each well to give a final bacterial cell number of 5×10^5 CFU/well. After incubation for 18-20 hours in a heating chamber at 37° C., the growth inhibition was evaluated by the absence of any bacterial development.
Compounds of the invention were tested at a constant concentration of 8 μg/mL. The clinical strains used in these potentiation experiments were NTBC020 (E. coli strain expressing NDM-1, TEM-1 and CTX-M-15); NTBC035-2 (K. pneumoniae strain expressing NDM-1, CMY-4 and SHV-11); NTBC104-1 (K. pneumoniae strain expressing NDM-1 and SHV-11); NTBC123 (K. pneumoniae strain expressing NDM-1); NTBC018 (C. freundii strain expressing VIM-2); NTBC024 (K. pneumoniae strain expressing VIM-19, TEM-1 and CTX-M-3); NTBC042 (E. coli strain expressing VIM-1, TEM-1, CTX-M-15, SHV-12); NTBC055 (E. Coli strain expressing VIM-1); NTBC062 (K. pneumoniae strain expressing IMP-1 and TEM-1) and NTBC039 (K. oxytoca strain expressing IMP-28).
as §4
Experiments were carried out using the ‘broth micro-dilution method’ according to the protocols M07-A8 established by the Clinical Laboratory Standards Institute (CLSI). […] After incubation for 18-20 hours in a heating chamber at 37° C., the growth inhibition was evaluated by the absence of any bacterial development. […]
Background: Dilution methods test growth across graded concentrations, often in twofold steps.

Where [10] appears, read: comparative study bands, read-out: Ki NDM-1 (comparative study).
Where [11] appears, read: comparative study bands, read-out: Ki VIM-1 (comparative study).
Where [12] appears, read: comparative study bands, read-out: Ki VIM-2 (comparative study).
Where [13] appears, read: comparative study bands, read-out: Ki IMP-1 (comparative study).
The mark [14] stands for this setting: mean Ki from multiple experiments, imipenem 300 μM, Cheng-Prusoff from IC50, read-out: Ki NDM-1.
Setting [15] is: mean Ki from multiple experiments, imipenem 300 μM, Cheng-Prusoff from IC50, read-out: Ki VIM-1.
Where [16] appears, read: mean Ki from multiple experiments, imipenem 300 μM, Cheng-Prusoff from IC50, read-out: Ki VIM-2.
Where [17] appears, read: mean Ki from multiple experiments, imipenem 300 μM, Cheng-Prusoff from IC50, read-out: Ki IMP-1.

Read-outs that look alike come from different tables or passages of the source.

Chain of NDM-1 (C7C422 29-270, looked up): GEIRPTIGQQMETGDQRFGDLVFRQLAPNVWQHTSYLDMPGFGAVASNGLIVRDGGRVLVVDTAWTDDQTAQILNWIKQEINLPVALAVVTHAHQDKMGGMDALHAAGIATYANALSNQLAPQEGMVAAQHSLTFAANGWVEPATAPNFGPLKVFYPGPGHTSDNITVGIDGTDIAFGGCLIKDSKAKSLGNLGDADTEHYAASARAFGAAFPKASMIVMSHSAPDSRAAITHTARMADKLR
Chain of IMP-1 (P52699 19-246, looked up, species assumed): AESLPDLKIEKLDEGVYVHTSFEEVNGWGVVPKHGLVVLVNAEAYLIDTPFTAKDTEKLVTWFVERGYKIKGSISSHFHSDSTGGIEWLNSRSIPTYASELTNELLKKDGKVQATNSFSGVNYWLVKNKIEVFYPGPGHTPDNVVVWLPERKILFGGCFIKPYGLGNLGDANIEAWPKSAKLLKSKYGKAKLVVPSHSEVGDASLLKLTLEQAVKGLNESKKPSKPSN

With `NCC(=O)Nc1ccc(S(=O)(=O)Nc2scnc2C(=O)O)cc1F` [Comp. A, reference compound], in [1], the AUC turned out to be 9 ng·h/mL, the C0 is 17 ng/mL and the clearance is 819 mL/min/kg. The fraction unbound at 5 h, 10 μM in data set [2] is 0.097. Besides, the “Stability in human plasma, % remaining” value in data set [3] (after 2 hours) is 29% remaining after 2 hours.

Regarding `NCC(=O)Nc1c(F)cc(S(=O)(=O)Nc2scnc2C(=O)O)cc1F` [Comp. B, reference compound], the Ki is below 30 nM in data set [4] (setting [10]), 300 to 500 nM in data set [5] (setting [11]), 100 to 150 nM in data set [6] (setting [12]) and 600 to 5000 nM in data set [7] (setting [13]). For the same compound, the “Stability in human plasma, % remaining” value in data set [3] (after 5 hours) is reported as 0% remaining after 5 hours.

With `COc1cc(S(=O)(=O)Nc2scnc2C(=O)O)ccc1NC(=O)CN` [Comp. E, reference compound], the values for the Ki in data set [4] (setting [10]), in [5] (setting [11]) and in data set [7] (setting [13]) were 100 to 300 nM, 300 to 500 nM and 600 to 5000 nM, respectively. Also, the “Stability in human plasma, % remaining” value in data set [3] (after 2 hours) is 29% remaining after 2 hours.

Regarding `N=C(N)NCC(=O)Nc1c(F)cc(S(=O)(=O)Nc2scnc2C(=O)O)cc1F` [Example 2, 5-[[3,5-difluoro-4-[(2-guanidinoacetyl)amino]phenyl]sulfonylamino]thiazole-4-carboxylic acid], the Ki is below 30 nM in data set [4] (setting [10]); below 50 nM in [4] (setting [14]); 300 to 500 nM in [5] (setting [11]); 200 to 500 nM in data set [5] (setting [15]); 50 to 100 nM in [6] (setting [12]); 50 to 150 nM in data set [6] (setting [16]). Besides, the Ki in [7] (setting [13]) is 600 to 5000 nM; in data set [7] (setting [17]), 1000 to 10000 nM. Also, in data set [8], the “Log10 reduction in CFUs compared to meropenem alone” value (“Log10 reduction in CFUs” below) worked out at 1.6 Log10. The “MIC of meropenem in the presence of the compound, K. pneumoniae NTBC104” value in [9] was 4 µg/mL. This compound had a fraction unbound at 5 h, 10 μM in [2] of 0.19. Also, the “Stability in human plasma, % remaining” value in [3] (after 2 hours) was determined as 73% remaining after 2 hours.

`N=C(N)NCC(=O)Nc1ccc(S(=O)(=O)Nc2scnc2C(=O)O)cc1F` [Example 7, 5-[[3-fluoro-4-[(2-guanidinoacetyl)amino]phenyl]sulfonylamino]thiazole-4-carboxylic acid]: the Ki in data set [4] (setting [14]) was 50 to 200 nM. Besides, in [1], the AUC was 1040 ng·h/mL, the C0 worked out at 1810 ng/mL and the clearance worked out at 16 mL/min/kg. In addition, in data set [1] (same dosage, mice), the “cleared from the blood slower than Compound A” value is “about 50 fold”, the “exposure (AUC) compared to Compound A” value was above 100 fold and the “maximum concentration compared to Compound A” value was above 100 fold. For the same compound, in data set [8], the “Log10 reduction in CFUs” value worked out at 1.7 Log10. Further, in [5] (setting [15]), the Ki was 200 to 500 nM. The Ki in [6] (setting [16]) was in the range of 50 to 150 nM. In addition, the Ki in data set [7] (setting [17]) fell in the range of 1000 to 10000 nM. Besides, in [2], the fraction unbound at 5 h, 10 μM was 0.392. For the same compound, the “Stability in human plasma, % remaining” value in data set [3] (after 5 hours) worked out at 100% remaining after 5 hours.

For `COc1cc(S(=O)(=O)Nc2scnc2C(=O)O)ccc1NC(=O)CNC(=N)N` [Example 16, 5-[[4-[(2-guanidinoacetyl)amino]-3-methoxy-phenyl]sulfonylamino]thiazole-4-carboxylic acid], the Ki in data set [4] (setting [10]) is 30 to 100 nM; in [4] (setting [14]), 50 to 200 nM; in [5] (setting [11]), below 150 nM; in data set [5] (setting [15]) it was below 200 nM; in data set [6] (setting [12]), below 20 nM; in data set [6] (setting [16]), below 20 nM. Also, the Ki in [7] (setting [13]) was 150 to 600 nM; in data set [7] (setting [17]), 500 to 1000 nM. Also, the “Stability in human plasma, % remaining” value in [3] (after 2 hours) was 89% remaining after 2 hours.

As for `N=C(N)NNC(=O)Nc1c(F)cc(S(=O)(=O)Nc2scnc2C(=O)O)cc1F` [Example 26, 5-[[3,5-difluoro-4-(guanidinocarbamoylamino)phenyl]sulfonylamino]thiazole-4-carboxylic acid], the Ki in data set [4] (setting [14]) is below 50 nM; in [5] (setting [15]) it was 200 to 500 nM; in data set [6] (setting [16]) it was 20 to 50 nM; in [7] (setting [17]), 1000 to 10000 nM. The “Log10 reduction in CFUs” value in [8] was found to be 1.8 Log10.

As to `N=C(N)Nc1ccc(S(=O)(=O)Nc2scnc2C(=O)O)cc1` [Example 44, 5-[(4-guanidinophenyl)sulfonylamino]thiazole-4-carboxylic acid], the Ki was 200 to 2000 nM in data set [4] (setting [14]), 200 to 500 nM in [5] (setting [15]), 50 to 150 nM in data set [6] (setting [16]) and 1000 to 10000 nM in [7] (setting [17]).

For the compound `N=C(N)NCC(=O)NCc1ccc(S(=O)(=O)Nc2scnc2C(=O)O)cc1F` [Example 45, 5-[[3-fluoro-4-[[(2-guanidinoacetyl)amino]methyl]phenyl]sulfonylamino]thiazole-4-carboxylic acid], the Ki in [4] (setting [14]) is 200 to 2000 nM; in data set [5] (setting [15]), 500 to 1000 nM; in [6] (setting [16]), 50 to 150 nM; in data set [7] (setting [17]), 1000 to 10000 nM.

As to `N=C(N)NCc1ccc(S(=O)(=O)Nc2scnc2C(=O)O)cc1F` [Example 46, 5-[[3-fluoro-4-(guanidinomethyl)phenyl]sulfonylamino]thiazole-4-carboxylic acid], the Ki in data set [4] (setting [14]) was 50 to 200 nM; in [5] (setting [15]), 200 to 500 nM; in data set [6] (setting [16]), 50 to 150 nM; in [7] (setting [17]), 1000 to 10000 nM.

What is called AUC is the area under the concentration-time curve, a measure of exposure. The clearance is the rate of elimination divided by the concentration. For orientation: fraction unbound means the share of the substance not bound to proteins or other matrix. Low readings indicate extensive binding, high ones weak binding. Broadly, the Ki is a dissociation constant, usually derived from enzyme kinetics or from competition with a known ligand.
